Results published in US10954240B2, “Compounds inhibiting leucine-rich repeat kinase enzyme activity” (Merck Sharp & Dohme Corp., priority 2014, dated 2021).

Target: LRRK2 (G2019S mutation, GST-LRRK2 (amino acids 970-2527)) (Homo sapiens (Human), UniProt Q5S007, G2019S)
Assay: LRRK2 Km ATP LanthaScreen Assay
Assay type: biochemical
Conditions: mean IC50 of several test results
Description: Unless otherwise noted, all LRRK2 IC50 data presented in tables refers to the LRRK2 Km ATP LanthaScreen™ Assay that is described in the Biological Assay section.
The data presented for the Km ATP LanthaScreen™ Assay represents mean IC50 values based on several test results and may have reasonable deviations depending on the specific conditions and reagents used. Reagents for the LRRK2 Km ATP LanthaScreen™ Assay were purchased from Life Technologies Corporation.
LRRK2 Km ATP LanthaScreen™ Assay
a) 400 nl of a 1:2.15 serial dilution of test compound (98 μM top assay concentration) is spotted via Labcyte Echo to certain wells in a 384 well black, untreated plate. Control wells contain 400 nl of either DMSO or 400 nl of a known inhibitor in DMSO.
c) A 30 minute room temperature incubation is followed by addition of 10 μl of 800 nM fluorescein labeled LRRKtide peptide substrate and 186 μM ATP solution in 1× assay buffer to all wells.
d) After a 60 minute room temperature incubation, 20 μl of TR-FRET Dilution Buffer (Invitrogen PV3756B) containing 4 nM Tb-labeled anti-phospho LRRKtide antibody and 20 mM EDTA is added to all wells.
e) Plates are incubated at room temperature for 1 hour and read on an Envision™ multi-mode plate reader with LanthaScreen™ settings. Results are analysed using Assay Data Analyzer.

Sequence of LRRK2 (G2019S mutation, GST-LRRK2 (amino acids 970-2527)) (Q5S007 970-2527 G2019S): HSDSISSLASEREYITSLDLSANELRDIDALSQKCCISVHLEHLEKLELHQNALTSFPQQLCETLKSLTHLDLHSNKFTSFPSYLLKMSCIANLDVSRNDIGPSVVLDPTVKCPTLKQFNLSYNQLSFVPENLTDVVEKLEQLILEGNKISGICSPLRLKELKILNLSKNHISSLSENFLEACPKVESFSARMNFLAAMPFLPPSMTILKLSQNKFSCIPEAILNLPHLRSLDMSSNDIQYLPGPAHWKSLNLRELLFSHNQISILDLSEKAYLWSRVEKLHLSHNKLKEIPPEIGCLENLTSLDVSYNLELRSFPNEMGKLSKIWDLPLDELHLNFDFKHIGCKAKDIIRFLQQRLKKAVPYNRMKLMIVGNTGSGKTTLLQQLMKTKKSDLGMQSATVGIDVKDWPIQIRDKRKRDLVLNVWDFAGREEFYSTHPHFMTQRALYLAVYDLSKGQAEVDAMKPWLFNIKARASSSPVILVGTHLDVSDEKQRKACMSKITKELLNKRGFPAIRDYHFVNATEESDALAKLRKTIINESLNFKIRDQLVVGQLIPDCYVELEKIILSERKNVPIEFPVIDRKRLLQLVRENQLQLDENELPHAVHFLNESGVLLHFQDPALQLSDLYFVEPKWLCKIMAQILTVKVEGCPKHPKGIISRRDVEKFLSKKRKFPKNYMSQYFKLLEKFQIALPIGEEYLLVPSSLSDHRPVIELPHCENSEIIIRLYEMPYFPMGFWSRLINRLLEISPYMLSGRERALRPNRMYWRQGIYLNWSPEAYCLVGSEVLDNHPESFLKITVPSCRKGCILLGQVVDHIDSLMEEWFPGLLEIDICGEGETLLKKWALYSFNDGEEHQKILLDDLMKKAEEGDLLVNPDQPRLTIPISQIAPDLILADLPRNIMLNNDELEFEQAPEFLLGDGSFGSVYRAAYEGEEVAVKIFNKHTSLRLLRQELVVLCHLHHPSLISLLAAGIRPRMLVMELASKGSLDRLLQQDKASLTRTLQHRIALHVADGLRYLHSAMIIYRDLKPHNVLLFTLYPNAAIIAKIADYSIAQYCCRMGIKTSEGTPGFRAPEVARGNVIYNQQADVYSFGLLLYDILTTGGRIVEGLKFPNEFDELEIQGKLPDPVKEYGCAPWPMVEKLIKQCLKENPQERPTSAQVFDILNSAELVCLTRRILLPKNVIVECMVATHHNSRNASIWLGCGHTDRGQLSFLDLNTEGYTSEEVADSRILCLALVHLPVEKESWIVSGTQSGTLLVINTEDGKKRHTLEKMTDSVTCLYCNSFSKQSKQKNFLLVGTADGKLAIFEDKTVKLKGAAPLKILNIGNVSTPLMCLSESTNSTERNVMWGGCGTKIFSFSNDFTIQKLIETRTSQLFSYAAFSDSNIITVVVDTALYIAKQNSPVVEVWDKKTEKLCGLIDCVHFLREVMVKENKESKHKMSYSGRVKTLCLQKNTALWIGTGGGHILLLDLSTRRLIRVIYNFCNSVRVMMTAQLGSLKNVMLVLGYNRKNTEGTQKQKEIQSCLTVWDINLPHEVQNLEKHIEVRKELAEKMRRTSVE

`CC(C)Oc1ccc2cnn(-c3ccnc(N4CCN(CC5CCC5)CC4)c3)c2c1` [Example 27, 1-(2-(4-(cyclobutylmethyl)piperazin-1-yl)pyridin-4-yl)-6-isopropoxy-1H-indazole] was tested, and the IC50 was 362 nM.

`CC(C)Oc1ccc2cnn(-c3ccnc(N4CCO[C@@H](C)C4)c3)c2c1` [Example 28, (S)-4-(4-(6-isopropoxy-1H-indazol-1-yl)pyridin-2-yl)-2-methylmorpholine] was tested, and the IC50 was 612 nM.

`CC(C)Oc1ccc2cnn(-c3ccnc(N4CCO[C@H](C)C4)c3)c2c1` [Example 29, (R)-4-(4-(6-isopropoxy-1H-indazol-1-yl)pyridin-2-yl)-2-methylmorpholine] showed an IC50 of 490 nM.

With `CC(C)Oc1ccc2cnn(-c3ccnc(N4CC(C(C)(C)O)C4)c3)c2c1` [Example 30, 2-(1-(4-(6-isopropoxy-1H-indazol-1-yl)pyridin-2-yl)azetidin-3-yl)propan-2-ol] the IC50 was 418 nM.

`CC(C)Oc1ccc2cnn(-c3ccnc(N4CCN(C)C(=O)C4)c3)c2c1` [Example 31, 4-(4-(6-isopropoxy-1H-indazol-1-yl)pyridin-2-yl)-1-methylpiperazin-2-one] was tested, and the IC50 was 443 nM.

`CC(C)Oc1ccc2cnn(-c3ccnc(N4C[C@@H](C)O[C@@H](C)C4)c3)c2c1` [Example 32, cis-4-(4-(6-isopropoxy-1H-indazol-1-yl)pyridin-2-yl)-2,6-dimethylmorpholine] gave an IC50 of 245 nM.

With `CC(C)Oc1ccc2cnn(-c3ccnc(N4CCN(c5ncccn5)CC4)c3)c2c1` [Example 33, 6-isopropoxy-1-(2-(4-(pyrimidin-2-yl)piperazin-1-yl)pyridin-4-yl)-1H-indazole] the IC50 was 326 nM.

For `CC(C)Oc1ccc2cnn(-c3ccnc(N4CCC(O)C4)c3)c2c1` (stereo not drawn) [Example 34, 1-(4-(6-isopropoxy-1H-indazol-1-yl)pyridin-2-yl)pyrrolidin-3-ol], the IC50 was 307 nM.

`CC(C)Oc1ccc2cnn(-c3ccnc(N4CCN(C)CC4)c3)c2c1` [Example 35, 6-isopropoxy-1-(2-(4-methylpiperazin-1-yl)pyridin-4-yl)-1H-indazole] was tested, and the IC50 was 181 nM.

For `COC1CCCN(c2cc(-n3ncc4ccc(OC(C)C)cc43)ccn2)C1` (stereo not drawn) [Example 36, 6-isopropoxy-1-(2-(3-methoxypiperidin-1-yl)pyridin-4-yl)-1H-indazole], the IC50 was 596 nM.

`CC(C)Oc1ccc2cnn(-c3ccnc(N4CCCC4)c3)c2c1` [Example 37, 6-isopropoxy-1-(2-(pyrrolidin-1-yl)pyridin-4-yl)-1H-indazole] was tested, and the IC50 was 229 nM.

`CC(C)Oc1ccc2cnn(-c3ccnc(N4CCN(CCO)CC4)c3)c2c1` [Example 39, 2-(4-(4-(6-isopropoxy-1H-indazol-1-yl)pyridin-2-yl)piperazin-1-yl)ethanol] showed an IC50 of 193 nM.

`CC(C)Oc1ccc2cnn(-c3ccnc(N4CCC(O)CC4)c3)c2c1` [Example 40, 1-(4-(6-isopropoxy-1H-indazol-1-yl)pyridin-2-yl)piperidin-4-ol] gave an IC50 of 378 nM.

For `COC1(C)CN(c2cc(-n3ncc4ccc(OC(C)C)cc43)ccn2)C1` [Example 41, 6-isopropoxy-1-(2-(3-methoxy-3-methylazetidin-1-yl)pyridin-4-yl)-1H-indazole], the IC50 was 890 nM.

Molecule `CC(C)Oc1ccc2cnn(-c3ccnc(N4CC[C@@H](F)C4)c3)c2c1` [Example 42, (R)-1-(2-(3-fluoropyrrolidin-1-yl)pyridin-4-yl)-6-isopropoxy-1H-indazole] has an IC50 of 412 nM.

`CC(C)Oc1ccc2cnn(-c3ccnc(N4CC[C@H](F)C4)c3)c2c1` [Example 43, (S)-1-(2-(3-fluoropyrrolidin-1-yl)pyridin-4-yl)-6-isopropoxy-1H-indazole] showed an IC50 of 950 nM.

Molecule `Cn1cc(-c2ccc3cnn(-c4ccnc(N5CCC(O)CC5)c4)c3c2)cn1` [Example 44, 1-(4-(6-(1-methyl-1H-pyrazol-4-yl)-1H-indazol-1-yl)pyridin-2-yl)piperidin-4-ol] has an IC50 of 100 nM.

For `Cn1cc(-c2ccc3cnn(-c4ccnc(N5CCCCC5)c4)c3c2)cn1` [Example 45, 6-(1-methyl-1H-pyrazol-4-yl)-1-(2-(pipendin-1-yl)pyridin-4-yl)-1H-indazole], the IC50 was 141 nM.

For `Cn1cc(-c2ccc3cnn(-c4ccnc(N5CCCC5)c4)c3c2)cn1` [Example 46, 6-(1-methyl-1H-pyrazol-4-yl)-1-(2-(pyrrolidin-1-yl)pyridin-4-yl)-1H-indazole], the IC50 was 74 nM.

With `CO[C@H]1CN(c2cc(-n3ncc4ccc(-c5cnn(C)c5)cc43)ccn2)C[C@@H]1O` [Example 48, (3S,4S)-4-methoxy-1-(4-(6-(1-methyl-1H-pyrazol-4-yl)-1H-indazol-1-yl)pyridin-2-yl)pyrrolidin-3-ol] the IC50 was 399 nM.

`C[C@@H]1CN(c2cc(-n3ncc4ccc(-c5cnn(C)c5)cc43)ccn2)CCO1` [Example 49, (R)-2-methyl-4-(4-(6-(1-methyl-1H-pyrazol-4-yl)-1H-indazol-1-yl)pyridin-2-yl)morpholine] gave an IC50 of 89 nM.

Molecule `C[C@H]1CN(c2cc(-n3ncc4ccc(-c5cnn(C)c5)cc43)ccn2)CCO1` [Example 50, (S)-2-methyl-4-(4-(6-(1-methyl-1H-pyrazol-4-yl)-1H-indazol-1-yl)pyridin-2-yl)morpholine] has an IC50 of 141 nM.

Molecule `CCc1nnc2n1CCN(c1cc(-n3ncc4ccc(-c5cnn(C)c5)cc43)ccn1)C2` [Example 51, 3-ethyl-7-(4-(6-(1-methyl-1H-pyrazol-4-yl)-1H-indazol-1-yl)pyridin-2-yl)-5,6,7,8-tetrahydro-[1,2,4]triazolo[4,3-a]pyrazine] has an IC50 of 217 nM.

In the case of `Cn1cc(-c2ccc3cnn(-c4ccnc(N5CCn6ccnc6C5)c4)c3c2)cn1` [Example 52, 7-(4-(6-(1-methyl-1H-pyrazol-4-yl)-1H-indazol-1-yl)pyridin-2-yl)-5,6,7,8-tetrahydroimidazo[1,2-a]pyrazine], the IC50 is reported as 189 nM.

`Cn1cc(-c2ccc3cnn(-c4ccnc(N5CCC(C)(O)C5)c4)c3c2)cn1` (stereo not drawn) [Example 53, 3-methyl-1-(4-(6-(1-methyl-1H-pyrazol-4-yl)-1H-indazol-1-yl)pyridin-2-yl)pyrrolidin-3-ol] showed an IC50 of 131 nM.

`Cn1cc(-c2ccc3cnn(-c4ccnc(N5CCN(c6ccncn6)CC5)c4)c3c2)cn1` [Example 54, 6-(1-methyl-1H-pyrazol-4-yl)-1-(2-(4-(pyrimidin-4-yl)piperazin-1-yl)pyridin-4-yl)-1H-indazole] showed an IC50 of 97 nM.

`Cn1cc(-c2ccc3cnn(-c4ccnc(N5CCN(CCO)CC5)c4)c3c2)cn1` [Example 55, 2-(4-(4-(6-(1-methyl-1H-pyrazol-4-yl)-1H-indazol-1-yl)pyridin-2-yl)piperazin-1-yl)ethanol] was tested, and the IC50 was 70 nM.

With `CS(=O)(=O)N1CCN(c2cc(-n3ncc4ccc(-c5cccnc5)cc43)ncn2)CC1` [Example 62, 1-{6-[4-(methylsulfonyl)piperazin-1-yl]pyrimidin-4-yl}-6-pyridin-3-yl-1H-indazole] the IC50 was 486 nM.

`Cn1cc(-c2ccc3cnn(-c4cc(N5CCN(S(C)(=O)=O)CC5)ncn4)c3c2)cn1` [Example 63, 6-(1-methyl-1H-pyrazol-4-yl)-1-{6-[4-(methylsulfonyl)piperazin-1-yl]pyrimidin-4-yl}-1H-indazole] showed an IC50 of 317 nM.

`CS(=O)(=O)N1CCN(c2cc(-n3ncc4ccc(-c5ccn[nH]5)cc43)ncn2)CC1` [Example 64, 1-{6-[4-(methylsulfonyl)piperazin-1-yl]pyrimidin-4-yl}-6-(1H-pyrazol-5-yl)-1H-indazole] gave an IC50 of 18 nM.

Molecule `CS(=O)(=O)N1CCN(c2cc(-n3ncc4ccc(-c5cn[nH]c5)cc43)ncn2)CC1` [Example 66, 1-{6-[4-(methylsulfonyl)piperazin-1-yl]pyrimidin-4-yl}-6-(1H-pyrazol-4-yl)-1H-indazole] has an IC50 of 68 nM.

Work on `c1cncc(-c2ccc3cnn(-c4cc(N5CCOCC5)ncn4)c3c2)c1` [Example 67, 1-(6-morpholin-4-ylpyrimidin-4-yl)-6-pyridin-3-yl-1H-indazole] yielded an IC50 of 130 nM.

`Cn1cc(-c2ccc3cnn(-c4cc(N5CCOCC5)ncn4)c3c2)cn1` [Example 68, 6-(1-methyl-1H-pyrazol-4-yl)-1-(6-morpholin-4-ylpyrimidin-4-yl)-1H-indazole] gave an IC50 of 79 nM.

With `c1cc(-c2ccc3cnn(-c4cc(N5CCOCC5)ncn4)c3c2)[nH]n1` [Example 69, 1-(6-morpholin-4-ylpyrimidin-4-yl)-6-(1H-pyrazol-5-yl)-1H-indazole] the IC50 was 10.5 nM.

`c1nc(N2CCOCC2)cc(-n2ncc3ccc(-c4cn[nH]c4)cc32)n1` [Example 70, 1-(6-morpholin-4-ylpyrimidin-4-yl)-6-(1H-pyrazo-4-yl)-1H-indazole] gave an IC50 of 77 nM.

With `c1nc(N2CCOCC2)cc(-n2ncc3ccc(C4CC4)cc32)n1` [Example 71, 6-cyclopropyl-1-(6-morpholin-4-ylpyrimidin-4-yl)-1H-indazole] the IC50 was 231 nM.
